{
  "source": "patent US7544805B2",
  "about": "(Chemagis Ltd., priority 2004, dated 2009)",
  "key": {"[1]": {"test": "Bulk density of the residue", "format": "physicochemical", "conditions": "residue after drying", "description": "The solution was then freeze dried (lyophilized), producing a residue with a bulk density of 0.061 gram/cm^3.\nThe solution was then spray-dried, producing a residue with a bulk density of 0.269 gram/cm^3."}, "[2]": {"test": "Retention of amorphous character after pressing (powder X-ray diffraction)", "format": "physicochemical", "conditions": "pressed at 10,000 Kg/cm^3 for 1 minute; X-ray diffractogram", "procedure": "X-ray diffraction data were acquired using a PHILIPS X-ray diffractometer model PW1050-70. System description: Kα1=1.54178 Å, voltage 40 kV, current 28 mA, diversion slit=1°, receiving slit=0.2 mm, scattering slit=1° with a Graphite monochromator. Experiment parameters: pattern measured between 2θ=4° and 2θ=30° with 0.05° increments; count time was 0.5 second per increment.\nThe X-ray analysis of the residue gave a featureless diffractogram with a broad peak centered at 2θ about 22°, showing the residue was amorphous. The residue was pressed at 10,000 Kg/cm^3 for 1 minute.\nThe residue was then pressed at 10,000 Kg/cm3 for 1 minute."}},
  "data": [
    {"smiles": "CC(C)(O)c1ccccc1CC[C@@H](SCC1(CC(=O)[O-])CC1)c1cccc(/C=C/c2ccc3ccc(Cl)cc3n2)c1.[Na+]", "note": "[Example 1, Amorphous Montelukast Sodium]", "values": [
      {"measurement": "bulk density", "setting": "[1]", "result": 0.269, "unit": "gram/cm^3"},
      {"measurement": "amorphous character after pressing", "setting": "[2]", "result": "remained amorphous"}
    ]},
    {"smiles": "CC(C)(O)c1ccccc1CC[C@@H](SCC1(CC(=O)[O-])CC1)c1cccc(/C=C/c2ccc3ccc(Cl)cc3n2)c1.[Na+]", "note": "[Reference Example 1, Amorphous Montelukast Sodium, reference compound]", "values": [
      {"measurement": "bulk density", "setting": "[1]", "result": 0.061, "unit": "gram/cm^3"}
    ]}
  ]
}
